# Experimental data: PubChem BioAssay AID463074 (Broad Institute, 2010)
# The source made the active and inactive calls.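 Rule for the calls: active = AC50 no more than tenfold above the top dose tested, or full inhibition at every dose with a flat fit (cut at about 19 µM in these data); inconclusive = flat curve fit with inhibition between 30% and 70%, or poor fit; inactive = AC50 more than tenfold above the top dose tested.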
# Test system: HMLE_sh_eGFP viability, CellTiter-Glo luminescence, 72 h
# Assay: viability loss of HMLE_sh_eGFP cells – cell-based, luminescence, counter-screen for HMLE_sh_ECad selective toxicity project, dose response (AID 463074);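 note: counterscreen control line to flag general toxicity for the HMLE_sh_ECad screen; potency for loss of viability as luminescence drops below DMSO wells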
row,SMILES,AC50
1,Cc1ccn2c(Nc3ccccc3)c(-c3ccccn3)nc2c1,4.57 µM
2,Cc1ccc(N=Nc2ccc(O)cc2)c(Br)c1,8.42 µM
3,O=C(c1cnc2ccc3ccccc3c2c1)c1cc(F)ccc1O,0.86 µM
4,O=C(c1ccccc1)c1nn(-c2ccc(Cl)cc2)c(=O)cc1C(F)(F)F,3.68 µM
5,O=[N+]([O-])c1cc(C(F)(F)F)ccc1NCCNC(=S)Nc1ccc(Cl)cc1,5.24 µM
6,NC(=O)CC(NC(=O)Cc1cccc2ccccc12)c1ccc(NC2CCCCCCC2)c([N+](=O)[O-])c1 (stereo not drawn),12 µM
7,O=C1c2ccccc2C2=Nc3ccccc3SC(c3ccc(Cl)cc3)C12 (stereo not drawn),10.6 µM
8,Cc1ccc(NC2=NCC(Cc3ccc(Br)cc3)S2)cc1 (stereo not drawn),6.73 µM
9,Cc1cccc(NC(=O)CCC(=O)N/N=C/c2ccc(O)cc2O)c1,10.6 µM
10,CCCCCCSc1ccc([C@H]2N[C@@](C)(C(=O)OC)[C@H]3C(=O)N(CC)C(=O)[C@@H]23)cc1,19.8 µM
11,CCN(c1ccccc1)c1nc(C#N)nc(N(CC)c2ccccc2)n1,7.07 µM
12,COc1cccc(S(=O)(=O)NCc2ccc(C(=O)Nc3cccc(Cl)c3)cc2)c1,4.74 µM
13,Cc1ccc(C)c(NC(=S)NC(NC(=O)Cc2cccc3ccccc23)C(Cl)(Cl)Cl)c1 (stereo not drawn),1.97 µM
14,COc1ccc(-c2sc3ccccc3c2/C=C/c2ccc(N)cc2)cc1,15.8 µM
15,O=C(NCc1nc(-c2ccc(C(F)(F)F)cc2)no1)Nc1cc(Cl)cc(Cl)c1,2.46 µM
16,Cc1ccc(NS(=O)(=O)c2cc([N+](=O)[O-])ccc2NNC(=S)Nc2cc(C)ccc2C)c(C)c1,2.6 µM
17,Oc1c(Cl)cc(Cl)cc1CNc1ccc(Br)cn1,3.68 µM
18,COc1cc(C[C@H](C)[C@H](C)Cc2ccc3c(c2)OCO3)ccc1O,6.66 µM
19,Cc1ccc2c(c1)c1c(n2CC(O)CNC2CCCCC2)CCCC1 (stereo not drawn),8.31 µM
20,CC(=O)Nc1ccc(-c2csc(NC(=O)Cc3ccccc3F)n2)cc1,11.5 µM
21,Cc1sc2ncnc(N3CCC(C(=O)N(C)CC(=O)Nc4ccc(Cl)c(C(F)(F)F)c4)CC3)c2c1C,3.93 µM
22,Cc1cc(/C=C2\SC(=S)N(Cc3ccco3)C2=O)c(C)n1-c1ccccc1,2.92 µM
23,CCC(=O)Nc1nc(C)c(-c2csc(Nc3cccc(O)c3)n2)s1,0.384 µM
24,OCCCNc1nc(-c2ccccc2)c2cc(Br)ccc2n1,> 19.5 µM (inactive)
25,O=S(=O)(c1ccc(Cl)cc1)N1CCC(n2cnc3cc(C(F)(F)F)ccc32)CC1,4 µM
26,Cc1ccc(C(=O)/C=C/c2cc(Br)cc(Br)c2O)o1,3.57 µM

row,SMILES,AC50
1,C/C(=N\Nc1cc(C(F)(F)F)ccc1Cl)c1ccccc1O,19.9 µM
2,FC(F)(F)c1cc(CCN2CCNC[C@@H]2Cc2ccccc2)cc(C(F)(F)F)c1,13.7 µM
3,CC(C)(C)OC(=O)NCc1ccc(NC(=O)c2nc[nH]c2C(=O)NCCCNC(=O)c2[nH]cnc2C(=O)Nc2ccc(CNC(=O)OC(C)(C)C)cc2)cc1,1.92 µM
4,Cc1ccc(NC(=O)c2nc(S(=O)(=O)Cc3ccccc3C)ncc2Cl)cc1C,7.64 µM
5,CC(=O)Oc1ccc2ccccc2c1C(NC(=O)Cc1ccccc1)c1ccc(Cl)cc1 (stereo not drawn),6.3 µM
6,O=C(Nc1ccc2c(c1)OCO2)c1cc(-c2cccc(O)c2)on1,1.65 µM
7,O=c1cc(-c2ccccc2)[nH]n1-c1ccc([N+](=O)[O-])cc1,8.23 µM
8,C=C(C)COc1ccc(-c2[nH]ncc2Oc2ccc(OC)cc2)c(O)c1,5.99 µM
9,COc1ccccc1/C=C1\S/C(=N/NC(=O)c2cccc(Br)c2)NC1=O,8.09 µM
10,CC1CC1C(=O)N1CCN(S(=O)(=O)c2cc(C(F)(F)F)cc(C(F)(F)F)c2)CC1 (stereo not drawn),6.27 µM
11,COc1ccc(C(=O)/C=C/c2ccc(OC)c(Cn3nnc4ccccc43)c2)cc1,6.82 µM
12,CCCC(=O)NC(=S)Nc1cccc(Cl)c1N1CCCC1,4.25 µM
13,Cc1ccc(OCCCCN(C)Cc2ccccc2)c(Br)c1,12.5 µM
14,N#C/C(=C\c1c[nH]c2ccc(Br)cc12)c1ccccn1,10.3 µM
15,CCn1c(C(=O)O)c(CC(=O)Nc2cccc(C(F)(F)F)c2)c2ccccc21,14.6 µM
16,Cc1cc(C)cc(NC(=O)Nc2ccc(-n3ccc(C(F)(F)F)n3)cc2)c1,4.95 µM
17,O=c1cc(C(F)(F)F)[nH]c2c(OC(F)(F)F)cccc12,> 19.5 µM (inactive)
18,Nc1c(C(=O)Nc2ccccc2)c2nc3ccccc3nc2n1CCCN1CCOCC1,6.77 µM
19,COc1ccc(CN(CCC(c2ccccc2)c2ccc(OC(C)C)cc2)C(=O)CCl)cc1OC (stereo not drawn),1.67 µM
20,CC(NC(=O)c1ccc(N2CCNCC2)c([N+](=O)[O-])c1)C12CC3CC(CC(C3)C1)C2 (stereo not drawn),6.64 µM
21,CC1(C)CCC[C@]2(C)[C@H]3Cc4cc(O)ccc4O[C@]3(C)CC[C@@H]12,6.89 µM
22,CCCc1[nH]c2ccc(C#N)cc2c1CCC,4.14 µM
23,CCOC(=O)c1[nH]c(C)c(C(=O)OCc2ccccc2F)c1C,1.03 µM
24,COc1ccccc1-c1cn[nH]c1-c1ccc(OCc2ccccc2F)cc1O,6.88 µM
25,OC(CNCC1CCCO1)Cn1c2ccc(Cl)cc2c2cc(Cl)ccc21 (stereo not drawn),7.38 µM
26,Cc1cc(Nc2cccc([N+](=O)[O-])c2)n2c(nc3ccccc32)c1C#N,9.61 µM

row,SMILES,AC50
1,Brc1ccc(/C=N/Nc2ccccc2)cc1,8.16 µM
2,CN(Cc1cnc2nc(N)nc(N)c2n1)c1ccc(C(=O)N[C@@H](CCC(=O)O)C(=O)O)cc1,< 0.16 µM
3,O=C(Nc1cccc(C(F)(F)F)c1)Nc1ccc(N2CCCC2)c(S(=O)(=O)Nc2ccccc2Cl)c1,1.33 µM
4,Nc1ncnc2c1c(-c1ccc(Oc3ccccc3)cc1)cn2C1CCCC1,1.7 µM
5,CSc1nc2sc3c(c2c(=O)n1CC(C)C)CC(C)(C)OC3,< 0.16 µM
6,CN1CCN(CCCN2c3ccccc3Sc3ccc(Cl)cc32)CC1,5.25 µM
7,O=C(/C(=C\c1ccccc1)c1nc2ccccc2[nH]1)c1ccc(Cl)cc1,3.27 µM
8,CC1CCCN(c2ccc(C(=O)N3CCC4(CC3)OCCO4)cc2[N+](=O)[O-])C1 (stereo not drawn),7.96 µM
9,O=C1NC(=O)N(Cc2ccccc2)C(=O)/C1=C/C=C/c1ccco1,2.04 µM
10,O=C(c1ccccc1)c1c[nH]c(C(=O)NNc2ccccc2)c1,1.53 µM
11,C/C(CC(=O)Nc1ccc(Cl)c(C(F)(F)F)c1)=N\NC(=O)c1cc2ccccc2cc1O,13.3 µM
12,C=C(C)COc1ccc(-c2nc(N)ncc2-c2ccc(Cl)cc2)c(O)c1,4 µM
13,COC(=O)C1=C(C)N(Cc2ccccc2)C(=NCc2cccc(Cl)c2)N[C@H]1c1cccc(F)c1,3.62 µM
14,CC(=O)c1ccc(-c2ccc([C@H]3[C@@H]4C=CCC[C@@]4(C)C(=O)N3Cc3ccccc3)c(F)c2)cc1,4.17 µM
15,CC(C)=CCc1c(O)ccc(C(=O)Cc2ccccc2)c1O,4.41 µM
16,CCOC(=O)c1ccc(NC(=O)c2nc[nH]c2C(=O)NCCNC(=O)c2[nH]cnc2C(=O)Nc2ccc(C(=O)OCC)cc2)cc1,0.624 µM
17,CN(C)c1ccc(/C=C(\Cl)c2nc3ccccc3s2)cc1,2.85 µM
18,Cn1nc(C(F)(F)F)c(C(=O)Nc2cccc(C(F)(F)F)c2)c1SCc1ccc(Cl)cc1,7.09 µM
19,CCc1cc2ccc(C)cc2nc1SCC(=O)c1ccc(NC(C)=O)cc1,9.7 µM
20,O=C(Nc1ccccc1)C1=C[C@@H](c2ccc(C(F)(F)F)cc2)C[C@@H](OCc2ccc(CO)cc2)O1,7.43 µM
21,COc1cc(OC)cc(-c2nnc(SCC(=O)N(Cc3ccccc3)C(C)(C)C)o2)c1,2.74 µM
22,Cc1ccccc1-n1c(SCC(=O)N/N=C/C=C/c2ccccc2[N+](=O)[O-])nc2ccccc2c1=O,> 19.5 µM (inactive)
23,O=C(CCSc1nc2ccccc2s1)N/N=C/c1c(O)ccc2ccccc12,16.2 µM
24,Cc1cc(-c2ccccc2)n(-c2cc(N/N=C/c3ccccc3O)ncn2)n1,0.669 µM
25,COC(=O)C1=C(C)N(Cc2ccccc2)C(=NCc2cccc(Cl)c2)N[C@H]1c1ccccc1,7.17 µM
26,C[C@@H](CSc1ccc(Br)cc1)CN1CC[C@H](C(C)(C)C)CCC1=O,3.35 µM

row,SMILES,AC50
1,Cn1nnnc1Sc1ncnc2scc(-c3cccc(Br)c3)c12,3.14 µM
2,O=C(Nc1ccccc1)C1=C[C@@H](c2csc3ccccc23)C[C@@H](OCc2ccc(CO)cc2)O1,4.11 µM
3,CCCSc1nsc(NC(=O)Nc2ccc(F)cc2F)n1,4.87 µM
4,Cc1cn(-c2cc(C(=O)Nc3ccc(C)c(NC(=O)C(=O)c4c[nH]c5ccccc45)c3)cc(C(F)(F)F)c2)cn1,3.5 µM
5,C[C@@H]1CCC(=O)N(CC[C@H](Sc2ccc(Br)cc2)c2ccccc2)CC1,5.66 µM
6,CC(=O)Oc1ccc(-c2csc(Nc3ccc(Cl)cn3)n2)cc1,4.6 µM
7,Cc1ccc(-c2csc(-c3c[nH]c4ccccc34)n2)c(C)c1,4.19 µM
8,CCCCn1c(SCC(N)=O)nc2sc3c(c2c1=O)CCC3,> 19.5 µM (inactive)
9,C[C@@H]1CC=C[C@H]2[C@H]1C(=O)N(Cc1ccccc1)[C@H]2c1ccc2ccccc2c1,6.67 µM
10,Cc1ccc(N2C(=O)NC(=O)/C(=C\C=C\c3ccco3)C2=O)cc1,4.54 µM
11,CC(=O)c1ccc(N2CCC(c3cc(-c4ccc(Cl)cc4)n[nH]3)CC2)c([N+](=O)[O-])c1,3.62 µM
12,CCOC(=O)c1c(NC(NC(=O)C(C)C)C(Cl)(Cl)Cl)sc2c1CCC2 (stereo not drawn),7.47 µM
13,C=CCC[C@@H](Cc1ccc(F)cc1)C(=O)OC[C@@H](Cc1c[nH]c2ccccc12)NC(=O)[C@@H](CC=C)CC(=O)N(CCO)Cc1ccccc1,7.13 µM
14,CC1(C)CC[C@]2(CO)[C@@H](O)C[C@]3(C)C(=CCC4[C@@]5(C)CC[C@H](O)C(C)(C)C5CC[C@]43C)[C@@H]2C1 (stereo partly drawn),4.35 µM
15,CCN(Cc1ccccc1)c1ccc(/C=N/N=C(N)N)cc1,3.16 µM
16,O=C(Nc1cccc(-c2csc(Nc3ccccc3)n2)c1)c1ccccc1,4.45 µM
17,CC(NC(=O)C1CCC(C(=O)NC(C)c2ccccc2)CC1)c1ccccc1 (stereo not drawn),> 19.5 µM (inactive)
18,Cc1ccc(CSc2nc3sc(C)c(C)c3c(=O)n2Cc2ccco2)cc1,> 19.5 µM (inactive)
19,CCN(CC)CCCNC(=S)N1CCN(c2nc(-c3ccc(F)cc3)cs2)CC1,2.44 µM
20,CC(C)Cc1nc2oc3c(Cl)ncnc3c2c2c1CCC2,3.72 µM
21,COc1ccc(-c2csc3nc(-c4ccccc4F)oc(=O)c23)cc1OC,3.86 µM
22,O=C(Cc1ccc(F)cc1)Nc1nnc(SCC(=O)N2CCCCC2)s1,> 19.5 µM (inactive)
23,c1ccc(-c2sc3ccccc3c2-c2ccc(OCCN3CCCC3)cc2)cc1,2.37 µM
24,Cc1ccc(NC(=O)C(=Cc2ccc(C(=O)O)cc2)C(=O)Nc2ccc(C)cc2C)c(C)c1,3.16 µM
25,CN1CCN(c2ccc(NC(=O)c3ccc(C#N)cc3F)cc2Cl)CC1,19.7 µM
